Experimental findings from paper PMC9646789, “Discovery of potential natural dihydroorotate dehydrogenase inhibitors and their synergism with brequinar via integrated molecular docking, dynamic simulations and in vitro approach” (Scientific Reports, 2022) are described below.

This experiment deals with T1, human dihydroorotate dehydrogenase (hDHODH) (Homo sapiens, UniProt Q02127).
T1 construct: gene DHODH
As to the kind of experiment: biochemical.

T1 sequence (Q02127 whole entry): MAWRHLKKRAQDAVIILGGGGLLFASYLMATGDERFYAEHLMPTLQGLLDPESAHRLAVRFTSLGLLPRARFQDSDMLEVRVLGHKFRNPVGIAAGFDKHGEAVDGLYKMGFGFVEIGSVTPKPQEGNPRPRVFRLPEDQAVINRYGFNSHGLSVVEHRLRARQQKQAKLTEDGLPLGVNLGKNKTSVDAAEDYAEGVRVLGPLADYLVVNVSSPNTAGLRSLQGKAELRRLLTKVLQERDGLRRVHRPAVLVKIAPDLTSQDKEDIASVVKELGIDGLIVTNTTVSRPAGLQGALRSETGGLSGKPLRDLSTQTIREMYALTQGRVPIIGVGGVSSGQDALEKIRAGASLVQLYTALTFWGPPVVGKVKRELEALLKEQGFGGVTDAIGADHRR

In the case of `COc1cc(C2Oc3cc([C@H]4Oc5cc(O)cc(O)c5C(=O)[C@@H]4O)ccc3OC2CO)ccc1O` (some centres unmarked) [Silibinin], the IC50 is 121 nM.
Take `COc1cc([C@H]2Oc3c(O)cc([C@H]4Oc5cc(O)cc(O)c5C(=O)[C@@H]4O)cc3[C@@H]2CO)ccc1O` [Silychristin B]: 166 nM corresponded to half-maximal inhibition (IC50).

Usually IC50 stands for the midpoint of a concentration-inhibition curve. Read a high IC50 as a need for much substance.
